Assay results: US20090227619A1, “Harmine derivatives, intermediates used in their preparations, preparation processes and use therefo” (priority 2003, published 2009)
Where two headings read alike, the source gives them in different places.

Tests used:
CT-DNA [1] = assay: DNA thermal denaturation, determination of ΔTm; assay type: binding; settings: 20 uM compound, Tm of CT-DNA alone 61° C.
Protocol: Experiments were carried out in PE buffer (1 mM Na2HPO4, 0.1 mM EDTA, pH 7.6) in a thermostatically controlled cell hold, and the quartz cuvette (1 cm path length) was heated by circulating water at a heating rate of 0.5° C./min from 25 to 95° C. Amsacrine and Doxorubicin Hydrochloride were used as standards. In all cases, the concentration of CT-DNA was 15 ug/ml. The ‘melting’ temperature Tm was taken as the mid-point of the hyperchromic transition.
ΔTm=Tm^drug-DNA complex−Tm^DNA alone
The ΔTm of each compound was calculated, Experiments were repeated three times, and an average value was calculated.

CT-DNA [2] = assay: UV absorption spectrum method with CT-DNA; assay type: binding; settings: CT-DNA 40 ug/ml, compound 20 uM, 37° C. for 2 h, OD at 260 nm
Protocol: Compounds to be tested (20 uM) were added into the PE buffer solution, and its scan curve was identified by the spectrograph at a wavelength of from 200 to 400 nm. CT-DNA (40 ug/ml) and compounds to be tested (20 uM) were added into the PE buffer solution. The mixture was cultured at 37° C. for 2 h, and its scan curve was identified by the UV spectrograph at a wavelength of from 200 to 400 nm. […] After that, the OD value at 260 nm of the scan curve of the medicaments tested and that of the CT-DNA mixture OD value at 260 nm of the scan curve were calculated and compared to determine the influences of the medicaments tested on the UV absorption spectrum of the DNA molecules.

HepG2 = assay: In vitro cytotoxicity, IC50 by MTT method, HepG2; assay type: cell-based, human; settings: Homo sapiens
In short: (§1)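 MTT viability, 48 h exposure: cells 10^5/ml in RPMI1640 + 10% FBS, 37 °C/5% CO2; MTT 4 h, DMSO solubilisation, A490.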

PLA-801 = assay: In vitro cytotoxicity, IC50 by MTT method, PLA-801; assay type: cell-based
In short: as §1

Bel-7402 = assay: In vitro cytotoxicity, IC50 by MTT method, Bel-7402; assay type: cell-based; settings: Homo sapiens
In short: as §1

BGC-823 = assay: In vitro cytotoxicity, IC50 by MTT method, BGC-823; assay type: cell-based; settings: Homo sapiens
In short: as §1

Hela = assay: In vitro cytotoxicity, IC50 by MTT method, Hela; assay type: cell-based; settings: Homo sapiens
In short: as §1

Lovo = assay: In vitro cytotoxicity, IC50 by MTT method, Lovo; assay type: cell-based; settings: Homo sapiens
In short: as §1

NIH3T3 = assay: In vitro cytotoxicity, IC50 by MTT method, NIH3T3; assay type: cell-based; settings: Mus musculus
In short: as §1

[3] = CT-DNA 15 ug/ml, PE buffer pH 7.6
[4] = HepG2 cell strain, read-out: IC50 HepG2
[5] = PLA-801 cell strain, read-out: IC50 PLA-801
[6] = Bel-7402, Bel7402 cell strain, read-out: IC50 Bel7402
[7] = BGC-823, BGC823 cell strain, read-out: IC50 BGC823
[8] = Hela cell strain, read-out: IC50 Hela
[9] = Lovo cell strain, read-out: IC50 Lovo
[10] = NIH3T3 cell strain, read-out: IC50 NIH3T3
[11] = Bel-7402, BeI7402, MTT, read-out: IC50
[12] = BGC-823, BGC823, MTT, read-out: IC50

melting point | SMILES | ΔTm (CT-DNA [1]; CT-DNA thermal denaturation) | Influence on the UV absorption of DNA (CT-DNA [2]) | IC50 (HepG2; [4]) | IC50 (PLA-801; [5]) | IC50 (Bel-7402; [6]) | IC50 (BGC-823; [7]) | IC50 (Hela; [8]) | IC50 (Lovo; [9]) | IC50 (NIH3T3; [10]) | also measured
 | COc1cccc2c1C(=O)c1c(O)c3c(c(O)c1C2=O)C[C@@](O)(C(=O)CO)C[C@@H]3O[C@H]1C[C@H](N)[C@H](O)[C@H](C)O1 [adriamycin, reference compound] | 10.8 °C | reduce the UV absorption of DNA |  |  |  |  |  |  |  | ΔTm (CT-DNA [1]; [3]): 10.8 °C
141 to 142 °C | CC(=O)COc1cc2c3ccccc3n(Cc3ccccc3)c2cn1 [Compound 43, 9-benzyl-3-acetylmethoxy-β-carboline] |  | increase the UV absorption of DNA | 300 µM | 250 µM | 130 µM | > 3000 µM | 500 µM | > 3000 µM | > 3000 µM | 
 | CC[C@@]1(O)C(=O)OCc2c1cc1n(c2=O)Cc2cc3ccccc3nc2-1 [camptothecin, reference compound] | −2.5 °C | increase the UV absorption of DNA |  |  |  |  |  |  |  | ΔTm (CT-DNA [1]; [3]): −2.5 °C
 | CCn1c2ccccc2c2ccncc21 [Compound 82, 9-ethyl-β-carboline] | 4.2 °C | reduce the UV absorption of DNA | 170 µM | 130 µM | 310 µM | 170 µM | 230 µM | 160 µM | 100 µM | 
 | COc1ccc2c3ccnc(C)c3n(CCO)c2c1 [Compound 5, 9-hydroxyethyl-7-methoxy-1-methyl-β-carboline] | 5.9 °C |  |  |  |  |  |  |  |  | IC50 (HepG2; HepG2, MTT, read-out: IC50): 310 µM; IC50 (PLA-801; PLA-801, MTT, read-out: IC50): 80 µM; IC50 (Bel-7402; [11]): 240 µM; IC50 (BGC-823; [12]): 200 µM; IC50 (Hela; Hela, MTT, read-out: IC50): 30 µM; IC50 (Lovo; Lovo, MTT, read-out: IC50): 30 µM; IC50 (NIH3T3; NIH3T3, MTT, read-out: IC50): 80 µM
86 to 88 °C | CCCCOC(=O)c1cc2c3ccccc3n(CC)c2cn1 [Compound 39, butyl 9-ethyl-β-carboline-3-carboxylate] | 1.6 °C |  | 70 µM | 110 µM | 70 µM | 80 µM | 70 µM | 80 µM | 80 µM | 
 | Cn1c2ccccc2c2ccncc21 [Compound 81, 9-methyl-β-carboline] | 3.3 °C |  | 100 µM | 220 µM | 300 µM | 200 µM | 330 µM | 220 µM | 120 µM | 
 | c1ccc2c(c1)[nH]c1cnccc12 [Compound 80, β-carboline] | 3.1 °C |  |  |  |  |  |  |  |  | IC50 (HepG2; HepG2, read-out: IC50 HepG2): 230 µM; IC50 (PLA-801; read-out: IC50 PLA-801): 20 µM; IC50 (Bel-7402; Bel-7402, read-out: IC50 Bel7402): 380 µM; IC50 (BGC-823; BGC-823, read-out: IC50 BGC823): 270 µM; IC50 (Hela; HeLa, read-out: IC50 Hela): 350 µM; IC50 (Lovo; LoVo, read-out: IC50 Lovo): 40 µM; IC50 (NIH3T3; NIH3T3, read-out: IC50 NIH3T3): 20 µM
221 to 223 °C | CCOC(=O)Nc1cc2c(cn1)[nH]c1ccccc12 [Compound 23, 3-[(ethoxycarbonyl)amino]-β-carboline] |  |  |  |  |  |  |  |  |  | IC50 (HepG2; HepG2, MTT, read-out: IC50): > 3000 µM; IC50 (PLA-801; PLA-801, MTT, read-out: IC50): 2160 µM; IC50 (Bel-7402; [11]): > 3000 µM; IC50 (BGC-823; [12]): > 3000 µM; IC50 (Hela; Hela, MTT, read-out: IC50): > 3000 µM; IC50 (Lovo; Lovo, MTT, read-out: IC50): > 3000 µM; IC50 (NIH3T3; NIH3T3, MTT, read-out: IC50): > 3000 µM

SMILES | melting point | ΔTm (CT-DNA [1]; CT-DNA thermal denaturation) | Influence on the UV absorption of DNA (CT-DNA [2]) | IC50 (HepG2; [4]) | IC50 (PLA-801; [5]) | IC50 (Bel-7402; [6]) | IC50 (BGC-823; [7]) | IC50 (Hela; [8]) | IC50 (Lovo; [9]) | IC50 (NIH3T3; [10]) | also measured
CCCCOC(=O)c1cc2c3ccccc3n(CCCC)c2cn1 [Compound 40, butyl 9-butyl-β-carboline-3-carboxylate] | 94 to 95 °C |  |  | 1080 µM | 2120 µM | 1080 µM | 70 µM | 950 µM | 40 µM | 50 µM | 
